This is an account of results in patent US5908868A, “Retinol derivatives useful for enhancing immune response” (priority 1995, dated 1999).

SMILES strings stand for the structures.

One test deals with CD8+ T lymphocytes. Briefly: Proliferation of anti-CD3 plus IL-2 activated CD8+ T lymphocytes. The test is classed as cell-based, BALB/c mouse. From the text:
(§1) Growth curves of lymph node T cells depleted of antigen-presenting cells (FIG. 17A) with and without 10^-6 M retinol at 2×10^5 and 5×10^4 cells/well. (FIG. 17B) Dose-responses elicited by different retinoids in cultures of lymph node T cells depleted of antigen-presenting cells. Also shown are the growth curves of CD4^+ (FIG. 17C) and CD8^+ T lymphocytes (FIG. 17D) in the presence of either retinol, 14HRR, human serum or in their absence.
(§2) T lymphocytes, purified as described, 5×10^4 well, were activated with immobilized anti-CD3 antibody in ITLB medium. The indicated amounts of retinoids or human serum were added at initiation of cultures. […] 14HRR was added every 12 hours. DNA synthesis was measured by a 4 hour pulse with tritiated thymidine. SDs were ≤17%.
(§3) The cell suspension in a volume of 2 ml was applied to a nylon wool column (40) (0.6 g of washed nylon fibers in the barrel of a 10 ml syringe) and incubated at 37° C. for 40 min. The non-adherent cells were recovered by washing with warm serum-free medium at a flow rate of 1 ml/min. […] The success of the enrichment procedures was monitored cytofluorimetrically using FITC-conjugated anti-CD8 and PE-conjugated anti-CD4. […]

Another test concerns B lymphocytes. The note with it: cited from earlier work.
The subject of the next test is blast cells (thymocytes). Put plainly: Flow cytometry phenotype of blast cells from activated thymocyte cultures. The test is classed as cell-based, BALB/c mouse. The following applies: retinol- and 14HRR-supported cultures, data not shown. The method, then:
To determine the phenotype of blast cells generated in the thymocyte cultures stimulated with immobilized anti-CD3 antibody and retinoids as well as the purity of CD4 and CD8 subsets isolated from pooled mouse lymph nodes, cells (10^5 -10^6 cells/sample), stained with FITC-conjugated anti-CD4 antibody and PE-conjugated anti-CD8 antibody, were analyzed by two-color flow cytometry with a FACScan. Dead cells were eliminated by forward low-angle scatter. Isotope controls were included in all experiments. To determine the phenotypes of activated thymocytes only blast cells were gated for collection and analysis.

A further test has as its system 5/2 cells. Put plainly: Growth (DNA synthesis, [3H]thymidine) of lymphoblastoid 5/2 cells in serum-free medium. The test is classed as cell-based, human. The note with it: for restoration of capacity to proliferate: ITLB medium without retinol. The method, then: Washed 5/2 cells (5,000/well) were incubated for 72 hours in HB101 medium with the indicated amounts of retinoids. DNA synthesis was measured by [^3 H] thymidine uptake. The measurements were done in triplicate. The SDs were <15%.
In FIGS. 4B to 4D, 5/2 cells were washed twice and seeded at a concentration of 150,000 cells/ml in HB 101 medium. Triplicate samples of 100 μl of cell suspension were removed daily and pulsed for 6 hours with [^3 H] thymidine. Means are shown. The SDs were never >20%.
P3 was purified as described in the Experimental Details section. 5/2 cells (5,000/well) were incubated for 72 hours in HB101 medium and refed with the indicated amount of retinoid daily. DNA synthesis was measured by [^3 H]-thymidine uptake. P3 is bioactive down to a concentration of 10-^8 M (FIG. 8). […] This is due either to chemical instability or to a more rapid metabolic degradation of P3 by the cells.
The assay was done in 96-well microtiter plates in a final volume of 200 ul/well. The cells were cultured for 72 hours and cell growth determined by [^3 H] thymidine (0.8 μCi/well)labeling for the last 16 hours. Retinoids were added at the indicated concentrations at the initiation of culture and every 24 hours thereafter.
The human EBV-transformed B-cell line 5/2 was established from the peripheral blood of a healthy donor. The cell line was grown in RPMI 1640 supplemented with 8% fetal calf serum, L-glutamine (2 mM), and antibiotics. The cell line was tested regularly for mycoplasma infections and was consistently negative.
The assay system is a modification of the assay developed by Blazar et al. (12). […] Assays were done in 96 well microtiter plates in a final volume of 200 μl/well or in 25 cm^2 tissue culture flasks. The cells in the microtiter plates were cultured for 72 hours and cell growth was determined by labeling for the last 16 hours with 0.8 μCi/well of [^3 H]thymidine (sp. act. 6.7 Ci/mmol). Growth in the culture flasks was determined in three aliquots of 100 μl taken at 24 hours intervals and cultured in the presence of 0.8 μCi of [^3 H]thymidine for an additional 6 hour period. To determine the viable cell number, nine aliquots per time point were differentially counted in a Neubauer chamber in the presence of trypan blue.
5/2 cells were grown in the absence of retinol in a medium containing the basic RPMI 1640 amino acid/salt mixture, insulin (5 μg/ml), transferrin (5 μg/ml), albumin (0.1%) and linoleic acid (10^-6 M) (ITLB). […] The dose-response curve shown in FIG. 26 indicates an effective concentration of 10^-7 M.

In a further test the test system is CD4+ T lymphocytes. Briefly: Proliferation of anti-CD3 activated CD4+ T lymphocytes. The test is classed as cell-based, BALB/c mouse.
Description: as §1, §2, §3

Setting [1] is: previous analyses with B lymphocytes (33).

Turning to `CC(C=CC=C(C)C(O)CO)=CC=C1C(C)=CCCC1(C)C` (stereo not shown) [14HRR, 14-hydroxy-4,14-retro-retinol], in the test with CD8+ T lymphocytes, the “response to activating signal” value is recorded as “responded to the activating signal”. In addition, the “potency relative to retinol in preventing necrotic cell death” value in the test with B lymphocytes (on a concentration basis, previous studies) was 20-40 times more potent. Besides, in the test with B lymphocytes (setting [1]), the “concentration at which activity was demonstrated” value is 5 µM and the “difference in active concentration, 14HRR versus retinal” value is listed as 40 fold. In addition, in the test with B lymphocytes (previous studies), the “support of B cell growth/proliferation” value is “capable of supporting the proliferation of B cells in the absence of an external supply of retinol”. Besides, in the test with blast cells (thymocytes), the “CD4+ cells among blast cells” value is approximately 70% and the “CD8+ cells among blast cells” value is on record as approximately 30%. For the same compound, the “support of 5/2 cell growth” value in the test with 5/2 cells (HB101 medium) was “active and capable of replacing retinol”. Besides, the minimal effective concentration in the test on 5/2 cells (Homo sapiens, 72 h, HB101 medium, refed daily, read-out: bioactive down to a concentration) stood at 0.01 µM. Moreover, the “restoration of capacity to proliferate” value in the test on 5/2 cells is on record as “restores the capacity to proliferate”. For the same compound, the “need to replenish cultures” value in the test with 5/2 cells (chemical instability or more rapid metabolic degradation) is “cultures have to be replenished daily”. For the same compound, the “response to activating signal” value in the test with CD4+ T lymphocytes was “responded to the activating signal”.
Take `CC1=C(/C=C/C(C)=C/C=C/C(C)=C/CO)C(C)(C)CCC1` [retinol, all-trans retinol]: the “response to activating signal” value with CD8+ T lymphocytes is “responded to the activating signal”. Moreover, the “support of B cell growth/proliferation” value with B lymphocytes (previous studies) was “necessary for the growth of B lymphocytes”. Besides, in the test with blast cells (thymocytes), the “CD4+ cells among blast cells” value was approximately 70% and the “CD8+ cells among blast cells” value was approximately 30%. Further, the “support of 5/2 cell growth” value in the test with 5/2 cells (HB101 medium) is “enable 5/2 cells to grow”. Moreover, in the test with 5/2 cells, the “restoration of capacity to proliferate” value was “restores the capacity to proliferate”. In the test with CD4+ T lymphocytes, the “response to activating signal” value is on record as “responded to the activating signal”.
